This note sets out measurements from patent US8975398B2, “NAMPT inhibitors” (AbbVie Inc., priority 2012, dated 2015).

This assay concerns PC3 cells. In words: NAMPT Cell Proliferation Assay (Cell Titer Glo; also performed in the presence of 0.3 mM nicotinamide mononucleotide). It counts as cell-based. To be noted: Homo sapiens, PC-3, 120 h, 5 days incubation, cell viability by Cell Titer Glo. In short, it runs like this: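 Viability read by Cell Titer Glo after 5-day compound treatment of PC3 cells, dose range 10 μM down to 1×10^−5 μM in 10-fold steps; a second run adds 0.3 mM nicotinamide mononucleotide. Sigmoidal dose-response fitting of percent inhibition gives IC50.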
For orientation: Cellular ATP, detected with luciferase, serves as a proxy for viable cell number.

As usually defined, the IC50 is the midpoint of a concentration-inhibition curve. For the molecule `CCC(C)CC(=O)N1CCC(Cc2ccc(NC(=O)C3CN(c4cccnn4)C3)cc2)CC1` (stereo not drawn) [Example 964, N-(4-{[1-(3-methylpentanoyl)piperidin-4-yl]methyl}phenyl)-1-(pyridazin-3-yl)azetidine-3-carboxamide], the concentration for half-maximal inhibition (IC50) was 0.00184 µM.
`O=C(Nc1ccc(CC2CCN(C(=O)C3CCCCC3)CC2)cc1)C1CN(c2cccnn2)C1` [Example 965, N-(4-{[1-(cyclohexylcarbonyl)piperidin-4-yl]methyl}phenyl)-1-(pyridazin-3-yl)azetidine-3-carboxamide]: the half-maximal inhibitory concentration (IC50) is 0.0026 µM.
As for `CC(C)CC(=O)N1CCC(Cc2ccc(NC(=O)C3CN(c4cccnn4)C3)cc2)CC1` [Example 966, N-(4-{[1-(3-methylbutanoyl)piperidin-4-yl]methyl}phenyl)-1-(pyridazin-3-yl)azetidine-3-carboxamide], the IC50 worked out at 0.00323 µM.
The same measure for `O=C(Nc1ccc(CC2CCN(C(=O)C3CC3)CC2)cc1)C1CN(c2cccnn2)C1` [Example 967, N-(4-{[1-(cyclopropylcarbonyl)piperidin-4-yl]methyl}phenyl)-1-(pyridazin-3-yl)azetidine-3-carboxamide]: 0.00305 µM.
Take `O=C(Nc1ccc(CC2CCN(C(=O)CC(F)(F)F)CC2)cc1)C1CN(c2cccnn2)C1` [Example 968, 1-(pyridazin-3-yl)-N-(4-{[1-(3,3,3-trifluoropropanoyl)piperidin-4-yl]methyl}phenyl)azetidine-3-carboxamide]: the IC50 was found to be 0.0037 µM.
Turning to `Cc1ccnnc1N1CC(C(=O)Nc2ccc(C3CCN(C(=O)CC(C)(C)C)CC3)cc2)C1` [Example 969, N-{4-[1-(3,3-dimethylbutanoyl)piperidin-4-yl]phenyl}-1-(4-methylpyridazin-3-yl)azetidine-3-carboxamide], the IC50 was found to be 0.000347 µM.
In the case of `CC(C)(C)CC(=O)N1CCC(n2cc(NC(=O)C3CN(c4cccnn4)C3)cn2)CC1` [Example 970, N-{1-[1-(3,3-dimethylbutanoyl)piperidin-4-yl]-1H-pyrazol-4-yl}-1-(pyridazin-3-yl)azetidine-3-carboxamide], the IC50 came out at 0.0285 µM.
As to `O=C(Nc1cnn(C2CCN(C(=O)c3ccccc3F)CC2)c1)C1CN(c2cccnn2)C1` [Example 971, N-{1-[1-(2-fluorobenzoyl)piperidin-4-yl]-1H-pyrazol-4-yl}-1-(pyridazin-3-yl)azetidine-3-carboxamide], the IC50 was 0.0708 µM.
As to `O=C(Nc1ccccc1)c1ccc(NC(=O)C2CN(c3cccnn3)C2)cc1` [Example 972, N-[4-(phenylcarbamoyl)phenyl]-1-(pyridazin-3-yl)azetidine-3-carboxamide], the IC50 was found to be 0.667 µM.
As for `CC(C)(C)CNC(=O)c1ccc(NC(=O)C2CN(c3cccnn3)C2)cc1` [Example 973, N-{4-[(2,2-dimethylpropyl)carbamoyl]phenyl}-1-(pyridazin-3-yl)azetidine-3-carboxamide], the IC50 turned out to be 0.00553 µM.
On to `COCC(C)(C)CNC(=O)c1ccc(NC(=O)C2CN(c3cccnn3)C2)cc1` [Example 974, N-{4-[(3-methoxy-2,2-dimethylpropyl)carbamoyl]phenyl}-1-(pyridazin-3-yl)azetidine-3-carboxamide], for which the IC50 turned out to be 0.00784 µM.
With `O=C(NCCC1CC1)c1ccc(NC(=O)C2CN(c3cccnn3)C2)cc1` [Example 975, N-{4-[(2-cyclopropylethyl)carbamoyl]phenyl}-1-(pyridazin-3-yl)azetidine-3-carboxamide], the IC50 was determined as 0.098 µM.
The result for `CCC1CCCCN1CCNC(=O)c1ccc(NC(=O)C2CN(c3cccnn3)C2)cc1` (stereo not drawn) [Example 976, N-(4-{[2-(2-ethylpiperidin-1-yl)ethyl]carbamoyl}phenyl)-1-(pyridazin-3-yl)azetidine-3-carboxamide] reads 0.0612 µM; that for `O=C(NCC1CCC1)c1ccc(NC(=O)C2CN(c3cccnn3)C2)cc1` [Example 977, N-{4-[(cyclobutylmethyl)carbamoyl]phenyl}-1-(pyridazin-3-yl)azetidine-3-carboxamide], 0.0124 µM.
In the case of `CC[C@H](C)NC(=O)c1ccc(NC(=O)C2CN(c3cccnn3)C2)cc1` [Example 978, N-{4-[(2S)-butan-2-ylcarbamoyl]phenyl}-1-(pyridazin-3-yl)azetidine-3-carboxamide], the IC50 came to 1.07 µM.
As for `CCCCNC(=O)c1ccc(NC(=O)C2CN(c3cccnn3)C2)cc1` [Example 979, N-[4-(butylcarbamoyl)phenyl]-1-(pyridazin-3-yl)azetidine-3-carboxamide], the IC50 is 0.072 µM.
For `CC1(C)CC(NC(=O)c2ccc(NC(=O)C3CN(c4cccnn4)C3)cc2)CCO1` (stereo not drawn) [Example 980, N-{4-[(2,2-dimethyltetrahydro-2H-pyran-4-yl)carbamoyl]phenyl}-1-(pyridazin-3-yl)azetidine-3-carboxamide], the IC50 was 0.0822 µM.
For `C[C@H](NC(=O)c1ccc(NC(=O)C2CN(c3cccnn3)C2)cc1)C1CC1` [Example 981, N-(4-{[(1S)-1-cyclopropylethyl]carbamoyl}phenyl)-1-(pyridazin-3-yl)azetidine-3-carboxamide], the concentration for half-maximal inhibition (IC50) was 1.06 µM.
With `CN(CCNC(=O)c1ccc(NC(=O)C2CN(c3cccnn3)C2)cc1)c1ccccc1` [Example 982, N-[4-({2-[methyl(phenyl)amino]ethyl}carbamoyl)phenyl]-1-(pyridazin-3-yl)azetidine-3-carboxamide], the half-maximal inhibitory concentration (IC50) stood at 0.0835 µM.
In the case of `O=C(NC1(C2CC2)CC1)c1ccc(NC(=O)C2CN(c3cccnn3)C2)cc1` [Example 983, N-{4-[1,1′-bi(cyclopropyl)-1-ylcarbamoyl]phenyl}-1-(pyridazin-3-yl)azetidine-3-carboxamide], the half-inhibitory concentration (IC50) was 0.604 µM.
Take `O=C(Nc1ccsc1)c1ccc(NC(=O)C2CN(c3cccnn3)C2)cc1` [Example 984, 1-(pyridazin-3-yl)-N-[4-(thiophen-3-ylcarbamoyl)phenyl]azetidine-3-carboxamide]: the IC50 amounted to 0.696 µM.
Consider `C[C@@H](NC(=O)c1ccc(NC(=O)C2CN(c3cccnn3)C2)cc1)C1CC1` [Example 985, N-(4-{[(1R)-1-cyclopropylethyl]carbamoyl}phenyl)-1-(pyridazin-3-yl)azetidine-3-carboxamide], for which the IC50 stood at 0.635 µM.
For `CN1CCC(NC(=O)c2ccc(NC(=O)C3CN(c4cccnn4)C3)cc2)CC1` [Example 986, N-{4-[(1-methylpiperidin-4-yl)carbamoyl]phenyl}-1-(pyridazin-3-yl)azetidine-3-carboxamide], the half-inhibitory concentration (IC50) amounted to 7.47 µM.
The result for `CC[C@@H](C)NC(=O)c1ccc(NC(=O)C2CN(c3cccnn3)C2)cc1` [Example 987, N-{4-[(2R)-butan-2-ylcarbamoyl]phenyl}-1-(pyridazin-3-yl)azetidine-3-carboxamide] reads 0.609 µM; that for `O=C(NC1CN2CCC1CC2)c1ccc(NC(=O)C2CN(c3cccnn3)C2)cc1` (stereo not drawn) [Example 988, N-[4-(1-azabicyclo[2.2.2]oct-3-ylcarbamoyl)phenyl]-1-(pyridazin-3-yl)azetidine-3-carboxamide], 1.24 µM.
Consider `O=C(NCC1CCOC1)c1ccc(NC(=O)C2CN(c3cccnn3)C2)cc1` (stereo not drawn) [Example 989, 1-(pyridazin-3-yl)-N-{4-[(tetrahydrofuran-3-ylmethyl)carbamoyl]phenyl}azetidine-3-carboxamide], for which the IC50 came out at 0.602 µM.
As for `O=C(NCC1COC1)c1ccc(NC(=O)C2CN(c3cccnn3)C2)cc1` [Example 990, N-{4-[(oxetan-3-ylmethyl)carbamoyl]phenyl}-1-(pyridazin-3-yl)azetidine-3-carboxamide], the IC50 is 6.81 µM.
